{"source": "patent EP2072050A1", "about": "“Compounds with anti-emetic effect” (Santhera Pharmaceuticals (Schweiz) AG, priority 2007, dated 2009)", "key": {"[1]": {"target": "MC-4 receptor (Homo sapiens, UniProt P32245)", "sequence (P32245 whole entry)": "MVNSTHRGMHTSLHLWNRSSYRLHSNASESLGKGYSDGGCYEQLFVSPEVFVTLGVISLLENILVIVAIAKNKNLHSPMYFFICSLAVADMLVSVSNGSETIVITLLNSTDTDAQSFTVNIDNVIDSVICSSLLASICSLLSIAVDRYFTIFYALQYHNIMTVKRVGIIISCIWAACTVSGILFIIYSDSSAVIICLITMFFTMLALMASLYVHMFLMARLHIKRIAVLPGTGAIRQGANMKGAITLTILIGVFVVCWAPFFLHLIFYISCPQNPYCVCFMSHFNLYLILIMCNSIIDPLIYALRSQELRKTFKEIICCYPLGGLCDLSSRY", "test": "block of the MC-4 receptor (internal finding, no method given)"}, "[2]": {"test_system": "cisplatin induced emesis in the ferret", "test": "cisplatin-induced emesis in the ferret", "format": "in vivo", "conditions": "for anti-emetic effect (in words): emesis model in the ferret, compound A 30 and 100 mg/kg, ondansetron 16 mg/kg; for Number of Emesis periods / Number of Retches / Number of Vomits: 3 h observation", "text": "The preferred model to assess an anti emetic potential in animals is the cisplatin-induced emesis in the ferret in which the effects of 5HT3A and NK1 antagonists have been thoroughly investigated. The method, which detects antiemetic activity, follows that described by Gardner et al (Brit. J. Pharmacol., 116, 3158-3163, 1995).\nSixty minutes before administration of the test substance, ferrets are placed in individual stainless steel cages (40 x 50 x 34 cm) with a grid floor. Then, the animals are challenged with cisplatin (10 mg/kg i.p.), and immediately observed over a 3-hour period for: • Number of ferrets showing retches and vomits; • Latency to first retching (h:min:s); • Latency to first vomiting (h:min:s); • Retching (number of retches); • Vomiting (number of vomits); • Number of emesis periods; • Mean duration of emesis periods (min:s); • Severe behavioral side effects. Retching is defined as a rhythmic respiratory movement against a closed glottis, while vomiting is defined as a forced expulsion of upper gastrointestinal contents.\nThe assay as described above was used to evaluate the anti emetic effects of melanocortin-4 receptor antagonists.\nEight ferrets were studied per group. The test substance was evaluated at two doses (30 and 100 mg/kg), administered p.o. 90 minutes before cisplatin, and compared with an appropriate vehicle control group (vehicle administered 90 minutes before cisplatin).\nQuantitative data was analyzed by comparing treated groups with vehicle control using unpaired Student's t tests.\nComparison between treated groups and vehicle control was done using Mann-Whitney U tests."}, "[3]": {"conditions": "group mean (8 ferrets), Ondansetron 16 mg/kg p.o. 1 h before cisplatin 10 mg/kg i.p."}, "[4]": {"conditions": "individual animal, Ondansetron 16 mg/kg p.o. 1 h before cisplatin 10 mg/kg i.p."}, "[5]": {"conditions": "group mean (8 ferrets), Compound A 30 mg/kg p.o. 1.5 h before cisplatin 10 mg/kg i.p."}, "[6]": {"conditions": "group mean (8 ferrets), Compound A 100 mg/kg p.o. 1.5 h before cisplatin 10 mg/kg i.p."}, "[7]": {"conditions": "individual animal, Compound A 30 mg/kg p.o. 1.5 h before cisplatin 10 mg/kg i.p."}, "[8]": {"conditions": "individual animal, Compound A 100 mg/kg p.o. 1.5 h before cisplatin 10 mg/kg i.p."}}, "note": "Where “and” joins values, the source holds several entries; their conditions need not be identical. Equal entries are not always repeated.", "data": [{"molecule": "Cc1nccn1CC1CCc2c(c3ccccc3n2C)C1=O", "note": "(stereo not shown) [Ondansetron, ondansetron, reference compound]", "values": [{"measurement": "block of the MC-4 receptor", "setting": "[1]", "value": "doesn't block"}, {"measurement": "separation between 5HT3 and MC-4", "setting": "[1]", "value": "more than 10000 fold"}, {"measurement": "anti-emetic effect (in words)", "setting": "[2]", "value": "clear anti-emetic effect"}, {"measurement": "Number of Emesis periods", "setting": "[2]; [3]", "value": 5.0}, {"measurement": "Number of Retches", "setting": "[2]; [3]", "value": 41.1}, {"measurement": "Number of Vomits", "setting": "[2]; [3]", "value": 1.9}, {"measurement": "Number of Emesis periods", "setting": "[2]; [4]", "value": "0 (4×) and 14 (2×) and 3 and 9"}, {"measurement": "Number of Retches", "setting": "[2]; [4]", "value": "0 (4×) and 113 and 26 and 56 and 134"}, {"measurement": "Number of Vomits", "setting": "[2]; [4]", "value": "0 (5×) and 2 and 6 and 7"}]}, {"molecule": "CC[C@H](COc1cccnc1C1CCN(C(=O)[C@@H](Cc2ccc(Cl)cc2Cl)NC(=O)N2CCCC2)CC1)N1CCCC1", "note": "[Compound A]", "values": [{"measurement": "anti-emetic effect (in words)", "setting": "[2]", "value": "pronounced anti-emetic properties"}, {"measurement": "Number of Emesis periods", "setting": "[2]; [5]", "value": 6.4}, {"measurement": "Number of Retches", "setting": "[2]; [5]", "value": 64.4}, {"measurement": "Number of Vomits", "setting": "[2]; [5]", "value": 2.4}, {"measurement": "Number of Emesis periods", "setting": "[2]; [6]", "value": 2.3}, {"measurement": "Number of Retches", "setting": "[2]; [6]", "value": 19.9}, {"measurement": "Number of Vomits", "setting": "[2]; [6]", "value": 0.8}, {"measurement": "Number of Emesis periods", "setting": "[2]; [7]", "value": "14 and 4 and 7 and 0 (2×) and 3 and 13 and 10"}, {"measurement": "Number of Retches", "setting": "[2]; [7]", "value": "156 and 26 and 90 and 0 (2×) and 41 and 118 and 84"}, {"measurement": "Number of Vomits", "setting": "[2]; [7]", "value": "9 and 0 (3×) and 2 (2×) and 1 and 5"}, {"measurement": "Number of Emesis periods", "setting": "[2]; [8]", "value": "5 and 0 (4×) and 1 and 8 and 4"}, {"measurement": "Number of Retches", "setting": "[2]; [8]", "value": "28 and 0 (4×) and 10 and 83 and 38"}, {"measurement": "Number of Vomits", "setting": "[2]; [8]", "value": "2 (3×) and 0 (5×)"}]}]}
